Measurements as given in ChEMBL document CHEMBL1128242, “Polyiodinated triglyceride analogs as potential computed tomography imaging agents for the liver” (J Med Chem, 1995).

Tests used:
Format in all cases: ADME, organism-based
Rattus norvegicus [1] = assay: Polyacrylamide Gel Electrophoresis (PAGE) to determined the concentration of stacking gel(SG) in rats after iv administration of [125I]-labeled 2-Oleolyl 1,3-disubstituted triglycerols was reported; conditions: in vivo
Rattus norvegicus [2] = assay: Distribution of radioactivity was determined in plasma at 3h after intravenous administration of [125I]-labeled 2-oleoglycerol 1,3-Bis-[omega-(3-amino-2,4,6-triiodophenyl)alkanoates] in rats; conditions: in vivo
Rattus norvegicus [3] = assay: Polyacrylamide Gel Electrophoresis (PAGE) to determined the concentration of low density lipoprotein (LDL) in rats after iv administration of [125I]-labeled 2-Oleolyl 1,3-disubstituted triglycerols was reported; conditions: in vivo
Rattus norvegicus [4] = assay: Distribution of radioactivity was determined in blood at 30 min after intravenous administration of 1,3-Disubstituted Triacylglycerols in rats; conditions: in vivo, 0.5 h
Rattus norvegicus [5] = assay: Distribution of radioactivity was determined in liver at 3h after intravenous administration of [125I]-labeled 2-oleoglycerol 1,3-Bis-[omega-(3-amino-2,4,6-triiodophenyl)alkanoates] in rats; conditions: in vivo
Rattus norvegicus [6] = assay: Distribution of radioactivity was determined in kidney at 30 min after intravenous administration of [125I]-labeled 2-oleoglycerol 1,3-Bis-[omega-(3-amino-2,4,6-triiodophenyl)alkanoates] in rats; conditions: in vivo, 0.5 h
Rattus norvegicus [7] = assay: Distribution of radioactivity was determined in spleen at 30 min after intravenous administration of 1,3-Disubstituted Triacylglycerols in rats; conditions: in vivo, 0.5 h
Rattus norvegicus [8] = assay: Distribution of radioactivity was determined in plasma at 24 hr after intravenous administration of [125I]-labeled 2-oleoglycerol 1,3-Bis-[omega-(3-amino-2,4,6-triiodophenyl)alkanoates] in rats; set-up: unit not given here; conditions: in vivo
Rattus norvegicus [9] = assay: Distribution of radioactivity was determined in blood at 24 hr after intravenous administration of 1,3-Disubstituted Triacylglycerols in rats; conditions: in vivo
Rattus norvegicus [10] = assay: Distribution of radioactivity was determined in blood at 24 hr after intravenous administration of [125I]-labeled 2-oleoglycerol 1,3-Bis-[omega-(3-amino-2,4,6-triiodophenyl)alkanoates] in rats; conditions: in vivo
Rattus norvegicus [11] = assay: Distribution of radioactivity was determined in blood at 3h after intravenous administration of 1,3-Disubstituted Triacylglycerols in rats; conditions: in vivo
Rattus norvegicus [12] = assay: Distribution of radioactivity was determined in spleen at 30 min after intravenous administration of [125I]-labeled 2-oleoglycerol 1,3-Bis-[omega-(3-amino-2,4,6-triiodophenyl)alkanoates] in rats; conditions: in vivo, 0.5 h
Rattus norvegicus [13] = assay: Analysis of lipid-soluble radioactivity in plasma 0.5 hour after iv administration of [125I]-labeled 2-Oleoyl 1,3-disubstituted Triacylglycerols expressed as %parent compound (by TLC with authentic [125I]-labeled standard) from rat; conditions: in vivo

Radioactivity (Rattus norvegicus [1]) [%] | Distribution of radioactivity (Rattus norvegicus [2]) [% dose/g] | Radioactivity (Rattus norvegicus [3]) [%] | Distribution of radioactivity (Rattus norvegicus [4]) [% dose/organ] | Distribution of radioactivity (Rattus norvegicus [5]) [% dose/g] | Distribution of radioactivity (Rattus norvegicus [6]) [% dose/g] | Distribution of radioactivity (Rattus norvegicus [7]) [% dose/organ] | Distribution of radioactivity (Rattus norvegicus [8]) | Distribution of radioactivity (Rattus norvegicus [9]) [% dose/organ] | Distribution of radioactivity (Rattus norvegicus [10]) [% dose/g] | Distribution of radioactivity (Rattus norvegicus [11]) [% dose/organ] | Distribution of radioactivity (Rattus norvegicus [12]) [% dose/g] | Lipid-soluble radioactivity (Rattus norvegicus [13]) | Compound
67.3 | 0.09 | 8.3 | 5.1 | 10.9 | 0.11 | 13 | 0.05 | 0.4 | 0.04 | 0.7 | 27.6 | – | CCCCCCCC/C=C/CCCCCCCC(=O)OC(COC(=O)CCc1c(I)cc(I)c(N)c1I)COC(=O)CCc1c(I)cc(I)c(N)c1I
80.9 | 0.13 | 3.2 | 5.8 | 13.8 | 0.14 | 13.7 | 0.24 | 1.5 | 0.15 | 0.9 | 31.7 | 85.8 | CCCCCCCC/C=C/CCCCCCCC(=O)OC(COC(=O)CCCc1c(I)cc(I)c(N)c1I)COC(=O)CCCc1c(I)cc(I)c(N)c1I
